From ChEMBL document CHEMBL1201862, “PubChem BioAssay data set” (2004) come the findings set out here.

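Cells were grown in 96-well plates and exposed to each compound for 48 hours at five concentrations; endpoints were interpolated linearly between bracketing concentrations, or set to the highest concentration if not reached. GI50 is the concentration that inhibits growth by half.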 Active and inactive are the calls of the source. No stated cut-off is given here; in the data, active = GI50 up to about 1.1 µM and inactive = higher. Where only a bound is given, the exact number is not on record here.

What all share (test): NCI anticancer screen, dose series, 48 h
Experiment [1] deals with 786-0.
The test system of experiment [2] is A549.
The test system of experiment [3] is BT-549.
In experiment [4] the test system is CAKI-1.
Experiment [5] has as its system HCT-116.
In experiment [6] the test system is HCT-15.
The test system of experiment [7] is HOP-92.
Experiment [8] has as its system Hs-578T.
Experiment [9] relates to IGROV-1.
Experiment [10] has as its system K562.
Experiment [11] has as its system MCF7.
Experiment [12] relates to MDA-MB-231.
Experiment [13] deals with NCI-H23.
The test system of experiment [14] is PC-3.
Experiment [15] deals with SF-539.
Experiment [16] deals with SK-MEL-5.
Experiment [17] has as its system SN12C.
The subject of experiment [18] is SNB-19.
The test system of experiment [19] is UACC-257.
The subject of experiment [20] is DMS-273.

As for `CC(=O)OC1CC2(C)C(=CC1C1SCCS1)CCC1C2CCC2(C)C(OC(C)=O)CCC12` (stereo not given), the GI50 in experiment [1] was > 100 µM (inactive); in experiment [2], > 100 µM (inactive); in experiment [3], > 100 µM (inactive); in [4] it was > 100 µM (inactive); in experiment [5], > 100 µM (inactive); in [6] it was over 100 µM. In addition, the GI50 in [7] was 66.4 µM (inactive); in experiment [8] it was 14.6 µM (inactive); in experiment [9] it was > 100 µM (inactive); in experiment [10], > 100 µM (inactive); in [11], 68.4 µM (inactive); in [12] it was 34.9 µM (inactive). Also, the GI50 was > 100 µM (inactive) in [13]; > 100 µM (inactive) in experiment [14]; 53.1 µM (inactive) in experiment [15]; > 100 µM (inactive) in experiment [16]; > 100 µM (inactive) in [17]; 37.1 µM (inactive) in experiment [18]. The GI50 in experiment [19] was > 100 µM (inactive).

As for `COC1(C)CCC(OS(C)(=O)=O)CO1` (stereo not given), the GI50 in experiment [1] was > 100 µM (inactive); in experiment [2], > 100 µM (inactive); in experiment [3] it was > 100 µM (inactive); in [4], > 100 µM (inactive); in experiment [5], > 100 µM (inactive); in experiment [6], over 100 µM. The GI50 in experiment [7], in experiment [8], in experiment [9], in experiment [10], in experiment [11] and in experiment [12] was > 100 µM (inactive) in each case. Moreover, the GI50 in [13], in experiment [14], in experiment [15], in experiment [16], in experiment [17] and in experiment [18] was > 100 µM (inactive) throughout. In addition, in experiment [19], the GI50 was > 100 µM (inactive).

For `C[C@@H]1CC[C@@H](C)[C@](C)(CCc2ccoc2)C/C=C\C=C/1C(=O)O`, the GI50 in experiment [1] was > 50 µM (inactive); in experiment [2], > 50 µM (inactive); in experiment [3], > 50 µM (inactive); in experiment [4] it was > 50 µM (inactive); in [5] it was > 50 µM (inactive); in experiment [6], over 50 µM. The GI50 in experiment [7], in [8], in [9], in [10], in experiment [11] and in [12] was > 50 µM (inactive) throughout. Moreover, the GI50 in experiment [13] is 32.1 µM (inactive); in experiment [14], > 50 µM (inactive); in experiment [15], > 50 µM (inactive); in experiment [16] it was > 50 µM (inactive); in experiment [17] it was > 50 µM (inactive); in experiment [18], > 50 µM (inactive). In [19], the GI50 is > 50 µM (inactive).

Take `CC1=NN2C=Nc3c(c(-c4ccc(Cl)cc4)cn3-c3ccc(C)cc3)C2N1` (stereo not given): the GI50 in experiment [1] was 19.5 µM (inactive); in experiment [2], > 100 µM (inactive); in [3] it was > 100 µM (inactive); in [4] it was 97.3 µM (inactive); in [5], 46.2 µM (inactive); in experiment [6] it was over 100 µM. Also, the GI50 was 17.1 µM (inactive) in experiment [7]; 11.3 µM (inactive) in experiment [8]; 76.6 µM (inactive) in experiment [9]; > 100 µM (inactive) in experiment [10]; > 100 µM (inactive) in [11]; 71.1 µM (inactive) in [12]. Besides, the GI50 is > 100 µM (inactive) in [13]; 32.9 µM (inactive) in experiment [14]; 87.1 µM (inactive) in experiment [15]; 87.9 µM (inactive) in experiment [16]; > 100 µM (inactive) in experiment [17]; 54.5 µM (inactive) in [18]. For the same molecule, the GI50 in [19] is > 100 µM (inactive).

In the case of `CCCS(=O)OC1C(C2COC(C)(C)O2)OC2OC(C)(C)OC21` (stereo not given), the GI50 in experiment [1] was 13.2 µM (inactive); in [2], 20.9 µM (inactive); in experiment [3] it was 12.1 µM (inactive); in experiment [4] it was 11.6 µM (inactive); in experiment [5] it was 6.07 µM (inactive); in experiment [6], 13.7 µM. Further, the GI50 in experiment [7] is 5.87 µM (inactive); in experiment [8], 4.46 µM (inactive); in experiment [9], 14.3 µM (inactive); in [10] it was 5.65 µM (inactive); in experiment [11], 12.4 µM (inactive); in [12], 13.1 µM (inactive). In addition, the GI50 in [13] was 7.26 µM (inactive); in [14], 2.87 µM (inactive); in experiment [15] it was 10.3 µM (inactive); in experiment [16] it was 13.2 µM (inactive); in experiment [17] it was 12.5 µM (inactive); in [18], 15 µM (inactive). Moreover, the GI50 in [19] is 13.6 µM (inactive).

Take `CC1OC(O[C@H]2CC[C@]3(C=O)[C@H]4CC[C@]5(C)[C@H](C6=CC(=O)OC6)CC[C@]5(O)[C@@H]4C=C[C@]3(O)C2)CC(O)C1O` (stereo not given in full): the GI50 in experiment [1] is 0.0871 µM (active); in experiment [2], 0.113 µM (active); in [3], 0.224 µM (active); in experiment [4], 0.103 µM (active); in [5] it was 0.0885 µM (active); in experiment [6] it was 0.289 µM. For the same molecule, the GI50 in experiment [7] was 0.577 µM (active); in experiment [8], 0.239 µM (active); in experiment [9], 0.157 µM (active); in experiment [10], 0.294 µM (active); in [11], 0.272 µM (active); in [12] it was 0.433 µM (active). The GI50 in experiment [13] is 0.143 µM (active); in experiment [14], 0.306 µM (active); in experiment [15], 0.169 µM (active); in [16] it was 0.0991 µM (active); in experiment [17], 0.117 µM (active); in experiment [18], 0.942 µM (active). In experiment [19], the GI50 was 0.579 µM (active).

Take `CC12N=NN(c3ccc([N+](=O)[O-])cc3)C1(O)c1ccccc1C2=O` (stereo not given): the GI50 is > 100 µM (inactive) in experiment [1]; > 100 µM (inactive) in experiment [2]; > 100 µM (inactive) in experiment [20]; > 100 µM (inactive) in [5]; over 100 µM in [6]; > 100 µM (inactive) in [9]. In addition, the GI50 in experiment [13] is > 100 µM (inactive); in [15], 70.1 µM (inactive); in [16], > 100 µM (inactive); in [17] it was > 100 µM (inactive); in experiment [18], > 100 µM (inactive); in experiment [19], > 100 µM (inactive).

Take `COc1ccc(C[C@@H](C(=O)O[C@H](C)[C@H](NC(=O)[C@@H](CC(C)C)N(C)C(=O)C2CCCN2C(=O)[C@H](C)O)C(=O)N2CCCCNC(=O)[C@@H](C)C(=O)[C@H](C(C)C)OC(=O)C[C@H](O)[C@H]2CC(C)C)N(C)C(C)=O)cc1` (stereo not given in full): the GI50 is 12.4 µM (inactive) in experiment [1]; 13.2 µM (inactive) in [2]; 17.5 µM (inactive) in [3]; 10.8 µM (inactive) in experiment [4]; 4.76 µM (inactive) in [5]; 16 µM in experiment [6]. Besides, the GI50 in [7] is 15 µM (inactive); in [8] it was 4.11 µM (inactive); in experiment [9], 9.2 µM (inactive); in experiment [10], 8.05 µM (inactive); in experiment [11], 2.78 µM (inactive); in experiment [12], 9.35 µM (inactive). Further, the GI50 in [13] is 10.3 µM (inactive); in experiment [14], 15.8 µM (inactive); in [15], 5.18 µM (inactive); in experiment [16] it was 3.95 µM (inactive); in [17] it was 15.2 µM (inactive); in [18] it was 10.6 µM (inactive). Also, the GI50 in experiment [19] is 17.5 µM (inactive).
